For assay [1], the target named is recombinant human integrin αvβ1 (Homo sapiens (Human), UniProt P05556+P06756). Put plainly: Solid phase integrin αvβ1 binding assay (fibronectin). The following applies: recombinant human integrin αvβ1 coated plate, recombinant fibronectin 2 ug/ml, 2 hours at 25° C., read-out: αvβ1 Inhibition IC50 (nM)-range. As to the method:
Example B2—Solid Phase Integrin αvβ1 Binding Assay
Microplates were coated with recombinant human integrin αvβ1 (2 ug/ml) in PBS (100 ul/well 4° C., overnight). The coating solution was removed, washed with PBS. Plate was blocked with 200 ul/well of Block Buffer (2% BSA in PBS) at 37° C. for 1 h. Dilutions of testing compounds and recombinant fibronectin (2 ug/ml) in binding and washing buffer (50 mM Tris-HCl, ph7.5; 0.1% BSA, 1 mM MnCl2; NaCl 150 mM; 0.02% Tween-20; 1 mM CaCl2); 1 mM MgCl2) were added. The plate was incubated for 2 hours at 25° C., washed, and incubated for 1 hour with Biotin-Anti-fibronectin. Bound antibody was detected by peroxidase-conjugated streptavidin. The IC50 values for testing compounds were calculated by a four-parameter logistic regression.
The compounds tested were compound samples prepared according to procedures described in the Synthetic Examples section, with the stereochemical purity as indicated in the Examples. The compounds tested were predominantly S-configuration at the alpha carbon of the amino acid scaffold, except for compounds 123, 124, and 125 which were predominantly R-configuration at the alpha carbon of the amino acid scaffold.

The target in assay [2] is αvβ1 integrin (αvβ1 expressing CHO cells) (Homo sapiens (Human), UniProt P05556+P06756). Briefly: Cell adhesion assay: inhibition of αvβ1 expressing CHO cells attaching to TGFβ1LAP. As to conditions: 1 h at 37° C., crystal violet absorbance 595 nm, read-out: αvβ1 Inhibition IC50 (nM)-range. The format is cell-based. As for the experimental part:
Example B1—Cell Adhesion Assay
In order to determine the potency, the compounds were assessed for their ability to inhibit αvβ1 expressing CHO cells attach to TGFβ1LAP. Microplates were coated overnight with 2 ug/ml TGFβ1LAP at 4° C., and blocked with 2% BSA/PBS for 30 min before the assay. Cells were detached and washed in PBS. After that the cells were resuspended in DMEM at 1.0×10^6 cells/ml, fifty microliter of cell suspension and fifty microliter of compound solution were added into the plate. The plates were incubated for one hour at 37° C. in humidified 5% carbon dioxide. Non-adherent cells were removed by centrifugation top side down at 58 g for 5 min. The attached cells were fixed and stained with 0.5% crystal violet (in 20% methanol and 1% formaldehyde) and the wells washed with PBS. Crystal violet was dissolved in 2% Triton-X in PBS. The relative number of cells in each well was evaluated by the absorbance at 595 nm in a microplate reader (Tecan). IC50 values were determined by non-linear regression with four parameters (Graphpad Prism 7.01, Y=Bottom+(Top−Bottom)/(1+10^((Log IC50−X)*HillSlope)).
The compounds tested were compound samples prepared according to procedures described in the Synthetic Examples section, with the stereochemical purity as indicated in the Examples indicated for Example or Compound No. 1-62. The compounds tested were predominantly S-configuration at the alpha carbon of the amino acid scaffold, except for compounds 123, 124, and 125 which were predominantly R-configuration at the alpha carbon of the amino acid scaffold. “Example or Compound No.” in Table B-1 refers to the compound illustrated in the examples for Example or Compound Nos. 1-62 (the compounds of Examples 1-62 are labeled as Compounds 1-62 in Table 1). “Example or Compound No.” in Table B-1 refers to the compound number as indicated in Table 1 or Table 2 for Example or Compound Nos. 63-126.

Structures are written as SMILES. Structures can show the parent of a compound that is named as a salt.

Broadly, the IC50 is the concentration needed to halve the response being measured.

Sequence of recombinant human integrin αvβ1 (P06756 31-889): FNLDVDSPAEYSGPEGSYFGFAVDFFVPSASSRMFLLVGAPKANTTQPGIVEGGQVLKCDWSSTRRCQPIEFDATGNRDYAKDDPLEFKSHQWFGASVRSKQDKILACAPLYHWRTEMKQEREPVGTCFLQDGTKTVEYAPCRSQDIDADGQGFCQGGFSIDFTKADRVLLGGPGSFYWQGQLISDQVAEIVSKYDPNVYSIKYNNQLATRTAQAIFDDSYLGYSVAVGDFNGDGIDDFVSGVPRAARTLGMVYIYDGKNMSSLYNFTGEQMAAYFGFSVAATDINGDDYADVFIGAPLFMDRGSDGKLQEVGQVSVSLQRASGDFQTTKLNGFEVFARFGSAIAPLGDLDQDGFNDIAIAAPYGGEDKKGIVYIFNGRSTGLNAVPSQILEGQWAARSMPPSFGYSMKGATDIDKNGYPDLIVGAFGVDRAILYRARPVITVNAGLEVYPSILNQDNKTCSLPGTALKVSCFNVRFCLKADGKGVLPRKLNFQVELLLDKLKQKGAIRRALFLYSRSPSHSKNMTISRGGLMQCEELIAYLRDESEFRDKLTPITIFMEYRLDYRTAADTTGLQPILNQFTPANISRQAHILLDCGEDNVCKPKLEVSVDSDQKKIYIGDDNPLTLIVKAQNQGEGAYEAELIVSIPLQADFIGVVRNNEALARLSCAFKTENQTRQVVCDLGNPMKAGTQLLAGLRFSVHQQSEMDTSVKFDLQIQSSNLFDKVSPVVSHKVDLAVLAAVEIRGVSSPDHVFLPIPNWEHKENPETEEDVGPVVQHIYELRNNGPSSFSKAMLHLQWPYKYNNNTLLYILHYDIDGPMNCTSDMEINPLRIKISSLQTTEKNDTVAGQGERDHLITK
Sequence of recombinant human integrin αvβ1 (P06756 891-992 partner): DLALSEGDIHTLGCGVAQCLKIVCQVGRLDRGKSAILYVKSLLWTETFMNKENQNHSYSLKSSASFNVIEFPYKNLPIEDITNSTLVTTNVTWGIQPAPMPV
Sequence of recombinant human integrin αvβ1 (P05556 21-728): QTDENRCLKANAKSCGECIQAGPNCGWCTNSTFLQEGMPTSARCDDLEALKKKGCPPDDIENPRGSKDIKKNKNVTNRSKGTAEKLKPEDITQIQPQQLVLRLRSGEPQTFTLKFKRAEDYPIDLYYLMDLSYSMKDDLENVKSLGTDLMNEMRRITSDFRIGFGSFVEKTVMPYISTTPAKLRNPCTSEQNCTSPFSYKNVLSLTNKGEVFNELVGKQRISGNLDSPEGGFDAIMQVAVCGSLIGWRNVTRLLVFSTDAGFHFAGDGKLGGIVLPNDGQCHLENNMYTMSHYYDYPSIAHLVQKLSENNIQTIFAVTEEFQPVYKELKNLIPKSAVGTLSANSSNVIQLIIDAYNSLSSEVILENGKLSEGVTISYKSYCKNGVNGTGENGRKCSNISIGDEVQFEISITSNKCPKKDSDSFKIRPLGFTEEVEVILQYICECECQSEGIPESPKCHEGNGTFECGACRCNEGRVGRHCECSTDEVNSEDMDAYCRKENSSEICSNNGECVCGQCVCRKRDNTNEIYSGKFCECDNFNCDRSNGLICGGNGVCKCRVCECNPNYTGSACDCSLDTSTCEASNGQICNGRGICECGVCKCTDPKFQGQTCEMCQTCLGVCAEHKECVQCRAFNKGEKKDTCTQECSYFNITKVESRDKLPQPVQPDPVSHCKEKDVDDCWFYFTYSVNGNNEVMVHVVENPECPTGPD
Sequence of αvβ1 integrin (αvβ1 expressing CHO cells) (P06756 31-889): as the sequence (P06756 31-889) above
Sequence of αvβ1 integrin (αvβ1 expressing CHO cells) (P06756 891-1048 partner): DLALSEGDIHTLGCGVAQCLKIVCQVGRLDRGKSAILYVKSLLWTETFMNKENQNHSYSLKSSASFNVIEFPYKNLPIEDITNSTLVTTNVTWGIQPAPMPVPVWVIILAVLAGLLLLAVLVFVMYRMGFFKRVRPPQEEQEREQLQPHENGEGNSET
Sequence of αvβ1 integrin (αvβ1 expressing CHO cells) (P05556 21-798): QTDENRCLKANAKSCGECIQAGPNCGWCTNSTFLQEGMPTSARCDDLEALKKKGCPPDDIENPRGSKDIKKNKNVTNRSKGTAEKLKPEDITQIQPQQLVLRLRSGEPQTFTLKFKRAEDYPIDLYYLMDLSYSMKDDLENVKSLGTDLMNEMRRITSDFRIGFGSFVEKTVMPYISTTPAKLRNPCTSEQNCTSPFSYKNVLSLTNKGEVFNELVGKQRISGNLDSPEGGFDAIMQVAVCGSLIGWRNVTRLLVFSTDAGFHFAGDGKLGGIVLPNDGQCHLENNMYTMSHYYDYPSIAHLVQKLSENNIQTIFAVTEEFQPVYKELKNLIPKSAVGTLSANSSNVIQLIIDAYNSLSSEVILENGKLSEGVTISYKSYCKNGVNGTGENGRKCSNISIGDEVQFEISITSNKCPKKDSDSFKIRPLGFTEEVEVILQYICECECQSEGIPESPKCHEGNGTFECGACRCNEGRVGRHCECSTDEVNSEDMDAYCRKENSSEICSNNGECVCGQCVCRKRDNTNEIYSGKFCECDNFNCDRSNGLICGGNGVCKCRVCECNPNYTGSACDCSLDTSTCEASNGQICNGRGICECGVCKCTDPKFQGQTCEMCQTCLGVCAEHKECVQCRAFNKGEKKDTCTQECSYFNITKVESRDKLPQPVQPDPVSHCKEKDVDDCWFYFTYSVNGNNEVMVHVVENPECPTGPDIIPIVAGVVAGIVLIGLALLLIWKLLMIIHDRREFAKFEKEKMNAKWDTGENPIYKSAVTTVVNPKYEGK

Turning to `O=C(N[C@H](CCCCCCCc1ccc2c(n1)NCCC2)C(=O)O)c1cc(F)cc(C(F)(F)F)c1` [Compound 125], in assay [1], the IC50 is above 1000 nM. `N#Cc1cccc(C(=O)NC(CCCCCCCc2ccc3c(n2)NCCC3)C(=O)O)c1` (stereo not shown) [Compound 94]: the 50% inhibitory concentration (IC50) in assay [1] was below 50 nM. Turning to `O=C(N[C@@H](CCCCCCCc1ccc2c(n1)NCCC2)C(=O)O)c1cccc(F)c1Cl` [Compound 121], the 50% inhibitory concentration (IC50) in assay [1] was below 50 nM. `O=C(NC(CN1CC(OCCCc2ccc3c(n2)NCCC3)C1)C(=O)O)c1c(Cl)cccc1Cl` (racemic) [Example 28, (+/−)-2-(2,6-dichlorobenzamido)-3-(3-(3-(5,6,7,8-tetrahydro-1,8-naphthyridin-2-yl)propoxy)azetidin-1-yl)propanoic acid]: the 50% inhibitory concentration (IC50) in assay [2] was in the range of 250 to 1000 nM. Same read-out and setting: the result for `N#Cc1cc(Cl)c(C(=O)N[C@@H](Cc2ccc(OCCCc3ccc4c(n3)NCCC4)cc2)C(=O)O)c(Cl)c1` [Example 5, (S)-2-(2,6-dichloro-4-cyanobenzamido)-3-(4-(3-(5,6,7,8-tetrahydro-1,8-naphthyridin-2-yl)propoxy)phenyl)propanoic acid] reads below 50 nM; that for `O=C(N[C@@H](Cc1ccc(OCCCc2ccc3c(n2)NCCC3)cc1)C(=O)O)c1cncc(-c2ccccc2)n1` [Example 4, (S)-2-(6-phenylpyrazine-2-carboxamido)-3-(4-(3-(5,6,7,8-tetrahydro-1,8-naphthyridin-2-yl)propoxy)phenyl)propanoic acid], above 1000 nM.

Regarding `CN1CCN=C(NCCCCOc2ccc(C[C@H](NC(=O)c3c(Cl)cccc3Cl)C(=O)O)cc2)C1=O` [Example 17, (S)-2-(2,6-dichlorobenzamido)-3-(4-(4-((4-methyl-3-oxo-3,4,5,6-tetrahydropyrazin-2-yl)amino)butoxy)phenyl)propanoic acid], in assay [2], the IC50 is above 1000 nM. Take `O=C(N[C@@H](CCCCCCCCNC1=NCCS1)C(=O)O)c1c(Cl)cccc1Cl` [Example 49, (S)-2-(2,6-dichlorobenzamido)-10-((4,5-dihydrothiazol-2-yl)amino)decanoic acid]: the IC50 in assay [2] is 50 to 250 nM. On the same count and under the same terms, then `O=C(N[C@@H](Cc1ccc(OCCCc2ccc3c(n2)NCCC3)cc1)C(=O)O)c1c(Cl)cncc1Cl` [Example 15, (S)-2-(3,5-dichloroisonicotinamido)-3-(4-(3-(5,6,7,8-tetrahydro-1,8-naphthyridin-2-yl)propoxy)phenyl)propanoic acid], with below 50 nM; and `O=C(N[C@@H](Cc1ccc(OCCCc2ccc3c(n2)NCCC3)cc1)C(=O)O)c1c(F)cccc1C(F)(F)F` [Example 6, (S)-2-(2-fluoro-6-(trifluoromethyl)benzamido)-3-(4-(3-(5,6,7,8-tetrahydro-1,8-naphthyridin-2-yl)propoxy)phenyl)propanoic acid], with below 50 nM; and `O=C(N[C@@H](Cc1ccc(OCC2(CNc3ccccn3)CC2)cc1)C(=O)O)c1c(Cl)cccc1Cl` [Example 46, (2S)-2-((2,6-dichlorobenzoyl)amino)-3-(4-((1-((2-pyridylamino)methyl)cyclopropyl)methoxy)phenyl)propanoic acid], with 50 to 250 nM. Turning to `O=C(N[C@@H](Cc1ccc(OCCCCNC2=NCCCO2)cc1)C(=O)O)c1c(Cl)cccc1Cl` [Example 59, (S)-2-(2,6-dichlorobenzamido)-3-(4-(4-((5,6-dihydro-4H-1,3-oxazin-2-yl)amino)butoxy)phenyl)propanoic acid], the IC50 in assay [2] is above 1000 nM. For the compound `Cc1nccc(C(=O)N[C@@H](Cc2ccc(OCCCc3ccc4c(n3)NCCC4)cc2)C(=O)O)n1` [Example 8, (S)-2-(2-methylpyrimidine-4-carboxamido)-3-(4-(3-(5,6,7,8-tetrahydro-1,8-naphthyridin-2-yl)propoxy)phenyl)propanoic acid], the concentration for half-maximal inhibition (IC50) in assay [2] fell in the range of 50 to 250 nM. As to `Cn1ncc2cccc(C(=O)N[C@@H](CCCCCCCc3ccc4c(n3)NCCC4)C(=O)O)c21` [Compound 114], the IC50 in assay [2] was below 50 nM. With `Cn1ncc2cc(C(=O)N[C@@H](Cc3ccc(OCCCc4ccc5c(n4)NCCC5)cc3)C(=O)O)ccc21` [Example 43, (2S)-2-[(1-methylindazole-5-carbonyl)amino]-3-[4-[3-(5,6,7,8-tetrahydro-1,8-naphthyridin-2-yl)propoxy]phenyl]propanoic acid], the IC50 in assay [2] was below 50 nM. Same read-out and setting: the result for `O=C(N[C@@H](Cc1ccc(OCCCc2ccc3c(n2)NCCC3)cc1)C(=O)O)c1cc(Cl)cc(Cl)c1` [Example 35, (2S)-2-[(3,5-dichlorobenzoyl)amino]-3-[4-[3-(5,6,7,8-tetrahydro-1,8-naphthyridin-2-yl)propoxy]phenyl]propanoic acid] reads below 50 nM. The same measure, in the same setting: then `Nc1cc(C(=O)N[C@@H](Cc2ccc(OCCCc3ccc4c(n3)NCCC4)cc2)C(=O)O)ccc1O` [Example 11, (S)-2-(3-amino-4-hydroxybenzamido)-3-(4-(3-(5,6,7,8-tetrahydro-1,8-naphthyridin-2-yl)propoxy)phenyl)propanoic acid], with 50 to 250 nM; and `CN1C(=O)CN=C1NCCCCOc1ccc(C[C@H](NC(=O)c2c(Cl)cccc2Cl)C(=O)O)cc1` [Example 57, (S)-2-(2,6-dichlorobenzamido)-3-(4-(4-((1-methyl-5-oxo-4,5-dihydro-1H-imidazol-2-yl)amino)butoxy)phenyl)propanoic acid], with above 1000 nM. In the case of `O=C(N[C@@H](CCCCCCCCNC1=NCCCS1)C(=O)O)c1c(Cl)cccc1Cl` [Example 54, (S)-2-(2,6-dichlorobenzamido)-10-((5,6-dihydro-4H-1,3-thiazin-2-yl)amino)decanoic acid], in assay [2], the IC50 lay within 250 to 1000 nM. Same read-out and setting: the result for `Cn1cc(-c2ccc(C(=O)N[C@@H](CCCCCCCc3ccc4c(n3)NCCC4)C(=O)O)cc2)cn1` [Compound 113] reads 50 to 250 nM; that for `O=C(N[C@@H](CCCCCCCc1ccc2c(n1)NCCC2)C(=O)O)c1ccc2cn(C(F)F)nc2c1` [Compound 108], 50 to 250 nM.

`O=C(N[C@@H](CCCCCCCc1ccc2c(n1)NCCC2)C(=O)O)c1cn[nH]c1-c1ccccc1` [Compound 110]: in assay [2], the IC50 lay in the range of 50 to 250 nM.

Turning to `O=C(N[C@@H](CCCCCCCCNC1=NCCNC1)C(=O)O)c1c(Cl)cccc1Cl` [Example 47, (S)-2-(2,6-dichlorobenzamido)-10-((3,4,5,6-tetrahydropyrazin-2-yl)amino)decanoic acid], the IC50 in assay [2] was above 1000 nM. Consider `O=C(NC(Cc1ccc(O[C@H]2CC[C@@H](Nc3ccccn3)CC2)cc1)C(=O)O)c1c(Cl)cccc1Cl` (stereo partly drawn) [Example 38, (2S)-2-[(2,6-dichlorobenzoyl)amino]-3-[4-[4-cis-(2-pyridylamino)cyclohexoxy]phenyl]propanoic acid], for which, in assay [2], the IC50 is below 50 nM. Turning to `O=C(NC(Cc1ccc(COC2CCC(Nc3ccccn3)CC2)cc1)C(=O)O)c1c(Cl)cccc1Cl` [Example 31, (S)-2-(2,6-dichlorobenzamido)-3-(4-((((1s,4R)-4-(pyridin-2-ylamino)cyclohexyl)oxy)methyl)phenyl)propanoic acid trifluoroacetate], the half-inhibitory concentration (IC50) in assay [2] was in the range of 50 to 250 nM. Regarding `O=C(N[C@@H](Cc1ccc(OCCCc2ccc3c(n2)NCCC3)cc1)C(=O)O)c1cccnc1` [Example 14, (S)-2-(nicotinamido)-3-(4-(3-(5,6,7,8-tetrahydro-1,8-naphthyridin-2-yl)propoxy)phenyl)propanoic acid], the IC50 in assay [2] was below 50 nM. Regarding `CN1CC(NCCCCCCCC[C@H](NC(=O)c2c(Cl)cccc2Cl)C(=O)O)=NCC1=O` [Example 52, (S)-2-(2,6-dichlorobenzamido)-10-((4-methyl-5-oxo-3,4,5,6-tetrahydropyrazin-2-yl)amino)decanoic acid], in assay [2], the IC50 is above 1000 nM. Regarding `O=C(N[C@@H](Cc1ccc(N2CC(c3ccc4c(n3)NCCC4)C2)cc1)C(=O)O)c1c(Cl)cccc1Cl` [Example 22, (S)-2-(2,6-dichlorobenzamido)-3-(4-(3-(5,6,7,8-tetrahydro-1,8-naphthyridin-2-yl)azetidin-1-yl)phenyl)propanoic acid], the half-inhibitory concentration (IC50) in assay [2] is below 50 nM.

These data come from patent US20230365556A1, “N-ACYL AMINO ACID COMPOUNDS AND METHODS OF USE” (Pliant Therapeutics, Inc., priority 2016, published 2023).
